Results as given in ChEMBL document CHEMBL1201862, “PubChem BioAssay data set” (2004).
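96-well plates; 48 h exposure; 5 concentrations. Endpoints by linear interpolation between flanking doses. Not reached: highest tested concentration assigned. GI50: concentration for 50% inhibition of growth.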 Activity calls are given as the source filed them. Rule as the data show it: active = GI50 up to about 1.1 µM and inactive = higher.

Assays:
Test in all cases: NCI tumour cell line growth inhibition, 48 h
K562 = tested on: K562
RPMI-8226 = tested on: RPMI-8226
CCRF-CEM = tested on: CCRF-CEM
UO-31 = tested on: UO-31
HOP-62 = tested on: HOP-62
NCI-H23 = tested on: NCI-H23
NCI/ADR-RES = tested on: NCI/ADR-RES
KM12 = tested on: KM12
COLO 205 = tested on: COLO 205
A549 = tested on: A549
PC-3 = tested on: PC-3
UACC-257 = tested on: UACC-257
UACC-62 = tested on: UACC-62
MDA-MB-231 = tested on: MDA-MB-231
SK-OV-3 = tested on: SK-OV-3
M14 = tested on: M14
NCI-H522 = tested on: NCI-H522
MDA-MB-435 = tested on: MDA-MB-435
BT-549 = tested on: BT-549
MDA-N = tested on: MDA-N
MCF7 = tested on: MCF7
MOLT-4 = tested on: MOLT-4
HOP-92 = tested on: HOP-92
Malme-3M = tested on: Malme-3M
DU-145 = tested on: DU-145
HCC 2998 = tested on: HCC 2998
SF-295 = tested on: SF-295
SR = tested on: SR
SNB-75 = tested on: SNB-75
ACHN = tested on: ACHN
IGROV-1 = tested on: IGROV-1
NCI-H226 = tested on: NCI-H226
LOX IMVI = tested on: LOX IMVI
U-251 = tested on: U-251
SK-MEL-2 = tested on: SK-MEL-2
SK-MEL-28 = tested on: SK-MEL-28
A498 = tested on: A498
OVCAR-3 = tested on: OVCAR-3
SF-539 = tested on: SF-539
OVCAR-8 = tested on: OVCAR-8
786-0 = tested on: 786-0
RXF 393 = tested on: RXF 393
EKVX = tested on: EKVX
SNB-19 = tested on: SNB-19
OVCAR-4 = tested on: OVCAR-4
HCT-116 = tested on: HCT-116
CAKI-1 = tested on: CAKI-1
SN12C = tested on: SN12C
OVCAR-5 = tested on: OVCAR-5
SW-620 = tested on: SW-620
HT-29 = tested on: HT-29
NCI-H460 = tested on: NCI-H460
HL-60 = tested on: HL-60
SK-MEL-5 = tested on: SK-MEL-5
HCT-15 = tested on: HCT-15
T47D = tested on: T47D
TK-10 = tested on: TK-10

## O/N=C1\SC(=N\O)/C(=N/O)S\C1=N/O
K562
  GI50: 51.2 µM (inactive)
RPMI-8226
  GI50: 83.2 µM (inactive)
CCRF-CEM
  GI50: > 100 µM (inactive)
UO-31
  GI50: 87.5 µM (inactive)
HOP-62
  GI50: > 100 µM (inactive)
NCI-H23
  GI50: 76.6 µM (inactive)
NCI/ADR-RES
  GI50: > 100 µM (inactive)
KM12
  GI50: 79.4 µM (inactive)
COLO 205
  GI50: > 100 µM (inactive)
A549
  GI50: > 100 µM (inactive)
PC-3
  GI50: > 100 µM (inactive)
UACC-257
  GI50: > 100 µM (inactive)
UACC-62
  GI50: 94.8 µM (inactive)
MDA-MB-231
  GI50: > 100 µM (inactive)
SK-OV-3
  GI50: > 100 µM (inactive)
M14
  GI50: > 100 µM (inactive)
NCI-H522
  GI50: 16.2 µM (inactive)
MDA-MB-435
  GI50: > 100 µM (inactive)
BT-549
  GI50: > 100 µM (inactive)
MDA-N
  GI50: 73.8 µM (inactive)
MCF7
  GI50: > 100 µM (inactive)
MOLT-4
  GI50: > 100 µM (inactive)
HOP-92
  GI50: > 100 µM (inactive)
Malme-3M
  GI50: > 100 µM (inactive)
DU-145
  GI50: > 100 µM (inactive)
HCC 2998
  GI50: > 100 µM (inactive)
SF-295
  GI50: > 100 µM (inactive)
SR
  GI50: 38.2 µM (inactive)
SNB-75
  GI50: > 100 µM (inactive)
ACHN
  GI50: > 100 µM (inactive)
IGROV-1
  GI50: > 100 µM (inactive)
NCI-H226
  GI50: > 100 µM (inactive)
LOX IMVI
  GI50: > 100 µM (inactive)
U-251
  GI50: > 100 µM (inactive)
SK-MEL-2
  GI50: > 100 µM (inactive)
SK-MEL-28
  GI50: > 100 µM (inactive)
A498
  GI50: > 100 µM (inactive)
OVCAR-3
  GI50: > 100 µM (inactive)
SF-539
  GI50: > 100 µM (inactive)
OVCAR-8
  GI50: > 100 µM (inactive)
786-0
  GI50: > 100 µM (inactive)
RXF 393
  GI50: > 100 µM (inactive)
EKVX
  GI50: > 100 µM (inactive)
SNB-19
  GI50: > 100 µM (inactive)
OVCAR-4
  GI50: > 100 µM (inactive)
HCT-116
  GI50: 68.4 µM (inactive)
CAKI-1
  GI50: > 100 µM (inactive)
SN12C
  GI50: > 100 µM (inactive)
OVCAR-5
  GI50: > 100 µM (inactive)
SW-620
  GI50: > 100 µM (inactive)
HT-29
  GI50: > 100 µM (inactive)
NCI-H460
  GI50: > 100 µM (inactive)
HL-60
  GI50: 21 µM (inactive)
SK-MEL-5
  GI50: 38.7 µM (inactive)
HCT-15
  GI50: > 100 µM

## Cn1c(-c2ccco2)ccc1-c1ccc(C=O)o1
K562
  GI50: 37.5 µM (inactive)
RPMI-8226
  GI50: 29 µM (inactive)
CCRF-CEM
  GI50: 27.5 µM (inactive)
UO-31
  GI50: 46.7 µM (inactive)
HOP-62
  GI50: > 100 µM (inactive)
NCI-H23
  GI50: 94.6 µM (inactive)
NCI/ADR-RES
  GI50: 33 µM (inactive)
KM12
  GI50: > 100 µM (inactive)
COLO 205
  GI50: > 100 µM (inactive)
A549
  GI50: > 100 µM (inactive)
PC-3
  GI50: > 100 µM (inactive)
UACC-257
  GI50: > 100 µM (inactive)
UACC-62
  GI50: 60.3 µM (inactive)
MDA-MB-231
  GI50: 79.1 µM (inactive)
SK-OV-3
  GI50: > 100 µM (inactive)
M14
  GI50: 35 µM (inactive)
T47D
  GI50: 38.1 µM (inactive)
NCI-H522
  GI50: > 100 µM (inactive)
MDA-MB-435
  GI50: 68.1 µM (inactive)
BT-549
  GI50: 95.7 µM (inactive)
MDA-N
  GI50: 35.7 µM (inactive)
MCF7
  GI50: 30.5 µM (inactive)
MOLT-4
  GI50: 23.3 µM (inactive)
HOP-92
  GI50: 31 µM (inactive)
Malme-3M
  GI50: > 100 µM (inactive)
DU-145
  GI50: 52.4 µM (inactive)
HCC 2998
  GI50: > 100 µM (inactive)
SF-295
  GI50: > 100 µM (inactive)
TK-10
  GI50: > 100 µM (inactive)
SR
  GI50: 31 µM (inactive)
SNB-75
  GI50: > 100 µM (inactive)
ACHN
  GI50: 49.7 µM (inactive)
IGROV-1
  GI50: 38.2 µM (inactive)
NCI-H226
  GI50: > 100 µM (inactive)
LOX IMVI
  GI50: 34.8 µM (inactive)
U-251
  GI50: 39.1 µM (inactive)
SK-MEL-2
  GI50: > 100 µM (inactive)
SK-MEL-28
  GI50: 48.6 µM (inactive)
A498
  GI50: 92.3 µM (inactive)
OVCAR-3
  GI50: 45.6 µM (inactive)
SF-539
  GI50: 21.5 µM (inactive)
OVCAR-8
  GI50: 37.3 µM (inactive)
786-0
  GI50: > 100 µM (inactive)
RXF 393
  GI50: > 100 µM (inactive)
EKVX
  GI50: 48.8 µM (inactive)
SNB-19
  GI50: > 100 µM (inactive)
OVCAR-4
  GI50: 56.4 µM (inactive)
HCT-116
  GI50: 24.2 µM (inactive)
CAKI-1
  GI50: 13 µM (inactive)
SN12C
  GI50: 77.6 µM (inactive)
OVCAR-5
  GI50: > 100 µM (inactive)
SW-620
  GI50: 33.4 µM (inactive)
HT-29
  GI50: 44.9 µM (inactive)
NCI-H460
  GI50: > 100 µM (inactive)
HL-60
  GI50: 21.5 µM (inactive)
SK-MEL-5
  GI50: 64.1 µM (inactive)
HCT-15
  GI50: 72.4 µM

## Nc1nc2c(c(=O)[nH]1)C(c1ccc(Cl)cc1)C=C(c1ccccc1)N2 (stereo not given)
K562
  GI50: 20.6 µM (inactive)
RPMI-8226
  GI50: 18.4 µM (inactive)
CCRF-CEM
  GI50: 24.8 µM (inactive)
UO-31
  GI50: 92.7 µM (inactive)
NCI-H23
  GI50: 24.4 µM (inactive)
COLO 205
  GI50: 19.1 µM (inactive)
A549
  GI50: 25.9 µM (inactive)
UACC-257
  GI50: 54.8 µM (inactive)
UACC-62
  GI50: 27.4 µM (inactive)
MDA-MB-231
  GI50: 20.9 µM (inactive)
SK-OV-3
  GI50: 23.8 µM (inactive)
T47D
  GI50: 21.8 µM (inactive)
MDA-MB-435
  GI50: 15 µM (inactive)
BT-549
  GI50: 35.1 µM (inactive)
MDA-N
  GI50: 18.6 µM (inactive)
HOP-92
  GI50: 20.4 µM (inactive)
DU-145
  GI50: 29.4 µM (inactive)
HCC 2998
  GI50: 15.3 µM (inactive)
SF-295
  GI50: 26.7 µM (inactive)
TK-10
  GI50: 51.6 µM (inactive)
SR
  GI50: 19.4 µM (inactive)
ACHN
  GI50: 75.3 µM (inactive)
LOX IMVI
  GI50: 45.3 µM (inactive)
U-251
  GI50: 17.8 µM (inactive)
SK-MEL-28
  GI50: 22.6 µM (inactive)
A498
  GI50: 54.5 µM (inactive)
786-0
  GI50: 25.4 µM (inactive)
RXF 393
  GI50: 43.6 µM (inactive)
SNB-19
  GI50: 37.9 µM (inactive)
OVCAR-4
  GI50: 21.6 µM (inactive)
HCT-116
  GI50: 16.3 µM (inactive)
CAKI-1
  GI50: 91.4 µM (inactive)
SN12C
  GI50: 19.9 µM (inactive)
SW-620
  GI50: 18.1 µM (inactive)
NCI-H460
  GI50: 20.4 µM (inactive)
HL-60
  GI50: 30.8 µM (inactive)
SK-MEL-5
  GI50: 19.9 µM (inactive)
HCT-15
  GI50: 34.7 µM
